From article PMC11374673, “Discovery of isoquinoline sulfonamides as allosteric gyrase inhibitors with activity against fluoroquinolone-resistant bacteria” (Nature Chemistry, 2024)
≈ marks a conversion by molar mass, not a printed value. Where “and” joins values, the source holds several entries; their conditions need not be identical. Equal values may be shown once.

Legend:
[1] = system: HepG2; assay: Cytotoxicity assay (MTT); type: cell-based, human
[2] = system: HEK293T; assay: Cytotoxicity assay (MTT); type: cell-based, human; details: for MTT data (raw readout): HEK293T; for IC50: 24 h, MTT
Procedure, shortened: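 HEK293T cells, maintained at 37 °C and 7% CO2 in Dulbecco’s modified Eagle medium with GlutaMax, antibiotics and serum, were plated in clear 96-well plates in 100 µl medium containing 1% fetal bovine serum and left 24 h to attach. After 24 h compound exposure, MTT (0.40 mg ml^−1) was added for 2 h. Formazan was dissolved in 100 µl DMSO and absorbance measured at 570 nm. Background-corrected IC50 values came from variable-slope non-linear fits.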

[3] = system: K. pneumoniae ATCC 29665; assay: MIC by broth microdilution; type: cell-based, Klebsiella pneumoniae; details: Klebsiella pneumoniae, ATCC29665, broth microdilution; read-out: MIC K. pneumoniae ATCC 29665
Procedure, shortened: (§1)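 Broth microdilution in CAMHB: twofold compound series inoculated with 100-fold-diluted bacteria from exponential growth (OD600 0.5, 37 °C); kanamycin 50 µg ml^−1 added for Keio collection strains. Overnight incubation, 37 °C, 600 r.p.m. shaking.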

[4] = system: E. coli W3110; assay: MIC by broth microdilution; type: cell-based, Escherichia coli
Procedure, shortened: as §1

MIC [3]: 12.5 µM (≈ 5.22 µg/mL)
MIC ([4]; Escherichia coli, W3110, WT, broth microdilution, read-out: MIC E. coli W3110): 6.25 µM (≈ 2.61 µg/mL)
Compound: O=S(=O)(NCCNCc1ccc(-c2ccccc2)cc1)c1cccc2cnccc12 [Compound 56]
MTT data (raw readout) ([1]; HepG2, 0.023 uM, experiment n = 1, technical triplicates): 0.559 and 0.503 and 0.453
MTT data (raw readout) ([1]; HepG2, 0.023 uM, experiment n = 2, technical triplicates): 0.586 and 0.547 and 0.578
MTT data (raw readout) ([1]; HepG2, 0.068 uM, experiment n = 1, technical triplicates): 0.490 and 0.488 and 0.494
MTT data (raw readout) ([1]; HepG2, 0.068 uM, experiment n = 2, technical triplicates): 0.579 and 0.616 and 0.615
MTT data (raw readout) ([1]; HepG2, 0.21 uM, experiment n = 1, technical triplicates): 0.573 and 0.504 and 0.507
MTT data (raw readout) ([1]; HepG2, 0.21 uM, experiment n = 2, technical triplicates): 0.577 and 0.574 and 0.618
MTT data (raw readout) ([1]; HepG2, 0.62 uM, experiment n = 1, technical triplicates): 0.495 and 0.510 and 0.493
MTT data (raw readout) ([1]; HepG2, 0.62 uM, experiment n = 2, technical triplicates): 0.602 and 0.579 and 0.597
MTT data (raw readout) ([1]; HepG2, 1.85 uM, experiment n = 1, technical triplicates): 0.533 and 0.518 and 0.529
MTT data (raw readout) ([1]; HepG2, 1.85 uM, experiment n = 2, technical triplicates): 0.634 and 0.597 and 0.638
MTT data (raw readout) ([1]; HepG2, 5.6 uM, experiment n = 1, technical triplicates): 0.550 and 0.534 and 0.503
MTT data (raw readout) ([1]; HepG2, 5.6 uM, experiment n = 2, technical triplicates): 0.619 and 0.618 and 0.638
MTT data (raw readout) ([1]; HepG2, 16.7 uM, experiment n = 1, technical triplicates): 0.186 and 0.116 and 0.134
MTT data (raw readout) ([1]; HepG2, 50 uM, experiment n = 1, technical triplicates): 0.0047 and 0.0027
IC50 ([1]; Homo sapiens, HepG2, 24 h, MTT, 24 h): 16.7 µM
MTT data (raw readout) ([2]; 0.023 uM, experiment n = 1, technical triplicates): 0.760 and 0.712 and 0.710
MTT data (raw readout) ([2]; 0.023 uM, experiment n = 2, technical triplicates): 0.814 and 0.790 and 0.847
MTT data (raw readout) ([2]; 0.068 uM, experiment n = 1, technical triplicates): 0.777 and 0.824 and 0.787
MTT data (raw readout) ([2]; 0.068 uM, experiment n = 2, technical triplicates): 0.796 and 0.816 and 0.794
MTT data (raw readout) ([2]; 0.21 uM, experiment n = 1, technical triplicates): 0.818 and 0.751 and 0.739
MTT data (raw readout) ([2]; 0.21 uM, experiment n = 2, technical triplicates): 0.813 and 0.836 and 0.832
MTT data (raw readout) ([2]; 0.62 uM, experiment n = 1, technical triplicates): 0.783 and 0.761 and 0.744
MTT data (raw readout) ([2]; 0.62 uM, experiment n = 2, technical triplicates): 0.785 and 0.778 and 0.750
MTT data (raw readout) ([2]; 1.85 uM, experiment n = 1, technical triplicates): 0.680 and 0.683 and 0.658
MTT data (raw readout) ([2]; 1.85 uM, experiment n = 2, technical triplicates): 0.720 and 0.749 and 0.788
MTT data (raw readout) ([2]; 5.6 uM, experiment n = 1, technical triplicates): 0.523 and 0.537 and 0.570
MTT data (raw readout) ([2]; 5.6 uM, experiment n = 2, technical triplicates): 0.582 and 0.590 and 0.593
MTT data (raw readout) ([2]; 16.7 uM, experiment n = 1, technical triplicates): 0.243 and 0.263 and 0.287
MTT data (raw readout) ([2]; 16.7 uM, experiment n = 2, technical triplicates): 0.271 and 0.304 and 0.282
MTT data (raw readout) ([2]; 50 uM, experiment n = 1, technical triplicates): 0.032 and 0.041 and 0.051
MTT data (raw readout) ([2]; 50 uM, experiment n = 2, technical triplicates): 0.036 and 0.023 and 0.035
IC50 ([2]; Homo sapiens, HEK-293T): 10 µM
IC50 [2]: 10.4 µM
antimicrobial activity ([4]; relative to parent compound): equally potent
